Experimental data taken from US9981916B2 (Genentech, Inc., priority 2013, dated 2018).

Target: T1, RORc ligand binding domain (Homo sapiens, UniProt P51449)
T1 construct: host or cells: E. coli
T1 sequence (P51449 269-508 limits assumed): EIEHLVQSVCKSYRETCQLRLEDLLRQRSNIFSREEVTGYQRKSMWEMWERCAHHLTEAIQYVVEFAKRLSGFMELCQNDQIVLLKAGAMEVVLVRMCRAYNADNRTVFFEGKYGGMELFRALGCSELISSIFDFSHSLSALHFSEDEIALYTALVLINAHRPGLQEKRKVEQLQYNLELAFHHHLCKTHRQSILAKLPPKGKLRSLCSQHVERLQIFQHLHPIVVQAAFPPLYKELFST
Test: In vitro RORc ligand binding assay (25-[3H]hydroxycholesterol displacement, filter binding)
Details: 6 nM 25-[3H]hydroxycholesterol, 0.6 ug/mL RORc receptor, 3 h at 25° C.
In short: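 Compounds in 5% DMSO, either dose-response or screened at 1 and 10 uM, competed with 6 nM 25-[3H]hydroxycholesterol for 0.6 ug/mL RORc over 3 h at 25° C (HEPES pH 7.4, NaCl, MgCl2, DTT, BSA buffer). Bound tracer was filter-harvested and counted; nonspecific binding came from 1 uM 25-hydroxycholesterol.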

Structure (SMILES)	IC50 [nM]
COCC(=O)N[C@@]12CC[C@@H](c3cc(-c4ccccc4F)nnc31)C2(C)C [Example 83, N-[(5R,8R)-3-(2-fluorophenyl)-9,9-dimethyl-6,7-dihydro-5,8-methanocinnolin-8(5H)-yl]-2-methoxyacetamide]	1170
Cc1nnc(NC(=O)[C@]23CC[C@H](c4cc(-c5c(F)cccc5F)nnc42)C3(C)C)o1 [Example 84, (5S,8S)-3-(2,6-difluorophenyl)-9,9-dimethyl-N-(5-methyl-1,3,4-oxadiazol-2-yl)-6,7-dihydro-5,8-methanocinnoline-8(5H)-carboxamide]	1010
Cc1noc(NC(=O)[C@]23CC[C@H](c4cc(-c5c(F)cccc5F)nnc42)C3(C)C)n1 [Example 85, (5S,8S)-3-(2,6-difluorophenyl)-9,9-dimethyl-N-(3-methyl-1,2,4-oxadiazol-5-yl)-6,7-dihydro-5,8-methanocinnoline-8(5H)-carboxamide]	5650
CC1(C)[C@@H]2CC[C@@]1(C(=O)N1CC(O)C1)c1nnc(-c3c(F)cccc3F)cc12 [Example 86, [(5S,8S)-3-(2,6-difluorophenyl)-9,9-dimethyl-6,7-dihydro-5,8-methanocinnolin-8(5H)-yl](3-hydroxyazetidin-1-yl)methanone]	97
CC(C)C(=O)N[C@@]12CC[C@@H](c3cc(-c4ccccc4F)nnc31)C2(C)C [Example 87, N-[(5R,8R)-3-(2-fluorophenyl)-9,9-dimethyl-6,7-dihydro-5,8-methanocinnolin-8(5H)-yl]-2-methylpropanamide]	5190
CC1(C)[C@H]2CC[C@]1(NC(=O)CO)c1nnc(-c3ccccc3F)cc12 [Example 88, N-[(5R,8R)-3-(2-fluorophenyl)-9,9-dimethyl-6,7-dihydro-5,8-methanocinnolin-8(5H)-yl]-2-hydroxyacetamide]	1440
CN(C)CC(=O)N[C@@]12CC[C@@H](c3cc(-c4ccccc4F)nnc31)C2(C)C [Example 89, N-[(5R,8R)-3-(2-fluorophenyl)-9,9-dimethyl-6,7-dihydro-5,8-methanocinnolin-8(5H)-yl]-N~2~,N~2~- dimethylglycinamide]	5190
CN(C)[C@@]12CC[C@@H](c3cc(-c4ccccc4F)nnc31)C2(C)C [Example 90, (5R,8R)-3-(2-fluorophenyl)-N,N,9,9-tetramethyl-6,7-dihydro-5,8-methanocinnolin-8(5H)-amine]	192
CONC(=O)[C@]12CC[C@H](c3cc(-c4c(F)cccc4F)nnc31)C2(C)C [Example 91, (5S,8S)-3-(2,6-difluorophenyl)-N-methoxy-9,9-dimethyl-6,7-dihydro-5,8-methanocinnoline-8(5H)-carboxamide]	384
CC1(O)CN(C(=O)[C@]23CC[C@H](c4cc(-c5c(F)cccc5F)nnc42)C3(C)C)C1 [Example 92, [(5S,8S)-3-(2,6-difluorophenyl)-9,9-dimethyl-6,7-dihydro-5,8-methanocinnolin-8(5H)-yl](3-hydroxy-3-methylazetidin-1-yl)methanone]	2990
CC1(C)[C@@H]2CC[C@@]1(C(=O)N1CC(F)C1)c1nnc(-c3c(F)cccc3F)cc12 [Example 93, [(5S,8S)-3-(2,6-difluorophenyl)-9,9-dimethyl-6,7-dihydro-5,8-methanocinnolin-8(5H)-yl](3-fluoroazetidin-1-yl)methanone]	127
CC(=O)Nc1ccc(-c2cc3c(nn2)[C@@]2(C)CC[C@@H]3C2(C)C)cn1 [Example 95, N-{5-[(5R,8S)-8,9,9-trimethyl-5,6,7,8-tetrahydro-5,8-methanocinnolin-3-yl]pyridin-2-yl}acetamide]	3320
Cn1cc(-c2cc3c(nn2)[C@@]2(C)CC[C@@H]3C2(C)C)cn1 [Example 96, (5R,8S)-8,9,9-trimethyl-3-(1-methyl-1H-pyrazol-4-yl)-5,6,7,8-tetrahydro-5,8-methanocinnoline]	5480
CC1(C)[C@H]2CC[C@]1(C)c1nnc(Oc3c(F)cccc3Cl)cc12 [Example 97, (5R,8S)-3-(2-chloro-6-fluorophenoxy)-8,9,9-trimethyl-5,6,7,8-tetrahydro-5,8-methanocinnoline]	87
CC1(C)[C@H]2CC[C@]1(C)c1nnc(Oc3ccccc3F)cc12 [Example 98, (5R,8S)-3-(2-fluorophenoxy)-8,9,9-trimethyl-5,6,7,8-tetrahydro-5,8-methanocinnoline]	600
CC1(C)[C@H]2CC[C@]1(C)c1nnc(Oc3c(F)cccc3F)cc12 [Example 99, (5R,8S)-3-(2,6-difluorophenoxy)-8,9,9-trimethyl-5,6,7,8-tetrahydro-5,8-methanocinnoline]	280
CC1CN(C(=O)[C@]23CC[C@H](c4cc(-c5c(F)cccc5F)nnc42)C3(C)C)C1 [Example 100, [(5S,8S)-3-(2,6-difluorophenyl)-9,9-dimethyl-6,7-dihydro-5,8-methanocinnolin-8(5H)-yl](3-methylazetidin-1-yl)methanone]	70

Structure (SMILES)	IC50 [nM]
CC1(C)[C@H]2CC[C@]1(c1nnco1)c1nnc(-c3c(F)cccc3F)cc12 [Example 101]	192
CC1(C)[C@H]2CC[C@]1(c1ncco1)c1nnc(-c3c(F)cccc3F)cc12 [Example 102, (5R,8R)-3-(2,6-difluorophenyl)-9,9-dimethyl-8-(1,3-oxazol-2-yl)-5,6,7,8-tetrahydro-5,8-methanocinnoline]	17
Cc1nnc([C@]23CC[C@H](c4cc(-c5c(F)cccc5F)nnc42)C3(C)C)o1 [Example 103, (5S,8S)-3-(2,6-difluorophenyl)-9,9-dimethyl-8-(5-methyl-1,3,4-oxadiazol-2-yl)-5,6,7,8-tetrahydro-5,8-methanocinnoline]	205
CC1(C)[C@H]2CC[C@]1(c1cnco1)c1nnc(-c3c(F)cccc3F)cc12 [Example 104, (5R,8R)-3-(2,6-difluorophenyl)-9,9-dimethyl-8-(1,3-oxazol-5-yl)-5,6,7,8-tetrahydro-5,8-methanocinnoline]	222
COc1nnc([C@@]23CC[C@@H](c4cc(-c5c(F)cccc5F)nnc42)C3(C)C)o1 [Example 105, (5R,8R)-3-(2,6-difluorophenyl)-8-(5-methoxy-1,3,4-oxadiazol-2-yl)-9,9-dimethyl-5,6,7,8-tetrahydro-5,8-methanocinnoline]	261
CC1(C)[C@H]2CC[C@]1(n1cnnc1)c1nnc(-c3c(F)cccc3F)cc12 [Example 107, (5R,8R)-3-(2,6-difluorophenyl)-9,9-dimethyl-8-(4H-1,2,4-triazol-4-yl)-5,6,7,8-tetrahydro-5,8-methanocinnoline]	1500
Cc1coc([C@@]23CC[C@@H](c4cc(-c5c(F)cccc5F)nnc42)C3(C)C)n1 [Example 108, (5R,8R)-3-(2,6-difluorophenyl)-9,9-dimethyl-8-(4-methyl-1,3-oxazol-2-yl)-5,6,7,8-tetrahydro-5,8-methanocinnoline]	96
CC1(C)[C@H]2CC[C@]1(N1CCCC1=O)c1nnc(-c3c(F)cccc3F)cc12 [Example 109, 1-[(5R,8R)-3-(2,6-difluorophenyl)-9,9-dimethyl-6,7-dihydro-5,8-methanocinnolin-8(5H)-yl]pyrrolidin-2-one]	201
CC1(C)[C@@H]2CC[C@@]1(c1nnco1)c1nnc(-c3c(F)cccc3F)cc12 [Example 110, (5S,8S)-3-(2,6-difluorophenyl)-9,9-dimethyl-8-(1,3,4-oxadiazol-2-yl)-5,6,7,8-tetrahydro-5,8-methanocinnoline]	186
CC1(C)[C@@H]2CC[C@@]1(c1nnc(CO)o1)c1nnc(-c3c(F)cccc3F)cc12 [Example 111, {5-[(5S,8S)-3-(2,6-difluorophenyl)-9,9-dimethyl-6,7-dihydro-5,8-methanocinnolin-8(5H)-yl]-1,3,4-oxadiazol-2-yl}methanol]	195
Cc1cnc([C@@]23CC[C@@H](c4cc(-c5c(F)cccc5F)nnc42)C3(C)C)o1 [Example 112, (5R,8R)-3-(2,6-difluorophenyl)-9,9-dimethyl-8-(5-methyl-1,3-oxazol-2-yl)-5,6,7,8-tetrahydro-5,8-methanocinnoline]	27
CC1(C)[C@H]2CC[C@]1(c1ccn[nH]1)c1nnc(-c3c(F)cccc3F)cc12 [Example 113, (5R,8S)-3-(2,6-difluorophenyl)-9,9-dimethyl-8-(1H-pyrazol-5-yl)-5,6,7,8-tetrahydro-5,8-methanocinnoline]	43
CC1(C)[C@H]2CC[C@]1(c1cocn1)c1nnc(-c3c(F)cccc3F)cc12 [Example 114, (5R,8S)-3-(2,6-difluorophenyl)-9,9-dimethyl-8-(1,3-oxazol-4-yl)-5,6,7,8-tetrahydro-5,8-methanocinnoline]	39
Cc1ncc([C@@]23CC[C@@H](c4cc(-c5c(F)cccc5F)nnc42)C3(C)C)o1 [Example 117, (5R,8R)-3-(2,6-difluorophenyl)-9,9-dimethyl-8-(2-methyl-1,3-oxazol-5-yl)-5,6,7,8-tetrahydro-5,8-methanocinnoline]	19
Cc1ncoc1[C@@]12CC[C@@H](c3cc(-c4c(F)cccc4F)nnc31)C2(C)C [Example 118, (5R,8R)-3-(2,6-difluorophenyl)-9,9-dimethyl-8-(4-methyl-1,3-oxazol-5-yl)-5,6,7,8-tetrahydro-5,8-methanocinnoline]	134
CC1(C)[C@H]2CC[C@]1(COc1ccccn1)c1nnc(-c3c(F)cccc3F)cc12 [Example 120, (5R,8R)-3-(2,6-difluorophenyl)-9,9-dimethyl-8-[(pyridin-2-yloxy)methyl]-5,6,7,8-tetrahydro-5,8-methanocinnoline]	126
